ChEMBL document CHEMBL1201862, “PubChem BioAssay data set” (2004)
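These data come from cells grown in 96-well plates and exposed to compound for 48 hours at five concentrations. GI50 is the concentration that inhibits growth by half.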 Calls of active or inactive are those of the source. No stated cut-off is given here; in the data, active = GI50 up to about 1.1 µM and inactive = higher.

Assays:
Experiment in all cases: NCI anticancer screen, dose series, 48 h
RXF 393 = tested on: RXF 393
Malme-3M = tested on: Malme-3M
KM12 = tested on: KM12
SK-MEL-28 = tested on: SK-MEL-28
EKVX = tested on: EKVX
ACHN = tested on: ACHN
HL-60 = tested on: HL-60
HCT-116 = tested on: HCT-116
NCI-H460 = tested on: NCI-H460
SW-620 = tested on: SW-620
UACC-257 = tested on: UACC-257
CAKI-1 = tested on: CAKI-1
OVCAR-5 = tested on: OVCAR-5
SK-MEL-5 = tested on: SK-MEL-5
OVCAR-4 = tested on: OVCAR-4
NCI-H522 = tested on: NCI-H522

| Compound | GI50 (RXF 393) | GI50 (Malme-3M) | GI50 (KM12) | GI50 (SK-MEL-28) | GI50 (EKVX) | GI50 (ACHN) | GI50 (HL-60) | GI50 (HCT-116) | GI50 (NCI-H460) | GI50 (SW-620) | GI50 (UACC-257) | GI50 (CAKI-1) | GI50 (OVCAR-5) | GI50 (SK-MEL-5) | GI50 (OVCAR-4) | GI50 (NCI-H522) |
| --- | --- | --- | --- | --- | --- | --- | --- | --- | --- | --- | --- | --- | --- | --- | --- | --- |
| CC[C@@H]1C[C@H]2CC3c4[nH]c5ccc(O)cc5c4CCN(C2)C31 | 72.3 µM (inactive) | > 100 µM (inactive) | > 100 µM (inactive) | > 100 µM (inactive) | > 100 µM (inactive) | > 100 µM (inactive) | > 100 µM (inactive) | > 100 µM (inactive) | > 100 µM (inactive) | > 100 µM (inactive) | > 100 µM (inactive) | > 100 µM (inactive) | > 100 µM (inactive) |  |  |  |
| CC1=Cc2cccc(C)c2C(=O)C1=O [O-HIBISCANONE] | 4.66 µM (inactive) | 1.8 µM (inactive) | 4.71 µM (inactive) | 16 µM (inactive) | 8.11 µM (inactive) | 5.12 µM (inactive) | 0.481 µM (active) | 2.73 µM (inactive) | 20.5 µM (inactive) | 1.28 µM (inactive) | 2.16 µM (inactive) | 16.5 µM (inactive) | 19 µM (inactive) | 2.28 µM (inactive) | 5.31 µM (inactive) | 4.72 µM (inactive) |
| CCOc1ccccc1/N=C(/NC(=O)CC)SC | > 10 µM (inactive) | 67.1 µM (inactive) | > 10 µM (inactive) | > 10 µM (inactive) | > 10 µM (inactive) | > 10 µM (inactive) | > 10 µM (inactive) | 81.1 µM (inactive) | > 10 µM (inactive) | > 10 µM (inactive) | > 10 µM (inactive) | > 10 µM (inactive) | > 10 µM (inactive) | > 10 µM (inactive) | 85.1 µM (inactive) | > 10 µM (inactive) |
| O=c1/c(=C/c2ccccc2F)sc2nc3ccccc3n12 | > 100 µM (inactive) | > 100 µM (inactive) |  | > 100 µM (inactive) | > 100 µM (inactive) | > 100 µM (inactive) | > 100 µM (inactive) | > 100 µM (inactive) | > 100 µM (inactive) | > 100 µM (inactive) | > 100 µM (inactive) | > 100 µM (inactive) | > 100 µM (inactive) | > 100 µM (inactive) | > 100 µM (inactive) | 92.7 µM (inactive) |
| O=C(CC1(O)C(=O)Nc2ccccc21)c1ccc(Cl)c(Cl)c1 (centres undefined) | > 100 µM (inactive) |  |  | > 100 µM (inactive) | 69.3 µM (inactive) | > 100 µM (inactive) | 22.8 µM (inactive) | > 100 µM (inactive) | > 100 µM (inactive) | > 100 µM (inactive) |  | > 100 µM (inactive) | > 100 µM (inactive) | > 100 µM (inactive) | > 100 µM (inactive) | > 100 µM (inactive) |
| CC1=NOC(=O)/C1=C/c1ccccc1O |  | > 100 µM (inactive) | > 100 µM (inactive) | > 100 µM (inactive) | > 100 µM (inactive) | > 100 µM (inactive) | > 100 µM (inactive) | > 100 µM (inactive) | > 100 µM (inactive) | 20.4 µM (inactive) | > 100 µM (inactive) | > 100 µM (inactive) | > 100 µM (inactive) | > 100 µM (inactive) | > 100 µM (inactive) | > 100 µM (inactive) |
| C=CCNC(=S)N1CC(C)C(=O)Nc2cc(Cl)ccc21 (centres undefined) | > 100 µM (inactive) | 82 µM (inactive) | > 100 µM (inactive) | > 100 µM (inactive) | > 100 µM (inactive) | > 100 µM (inactive) | > 100 µM (inactive) | > 100 µM (inactive) | > 100 µM (inactive) |  | > 100 µM (inactive) | > 100 µM (inactive) | > 100 µM (inactive) | > 100 µM (inactive) | > 100 µM (inactive) | > 100 µM (inactive) |
| C/N=C1\CC2c3cc(OC)c(OC)cc3CCN2C2=C1C(=O)CC(C)(C)C2 (centres undefined) | > 100 µM (inactive) | > 100 µM (inactive) | > 100 µM (inactive) | > 100 µM (inactive) | > 100 µM (inactive) | > 100 µM (inactive) | > 100 µM (inactive) | > 100 µM (inactive) | > 100 µM (inactive) | > 100 µM (inactive) | > 100 µM (inactive) | > 100 µM (inactive) | > 100 µM (inactive) | > 100 µM (inactive) |  | > 100 µM (inactive) |
| NN/C(Cc1ccccc1)=N\NO | > 100 µM (inactive) | > 100 µM (inactive) | 17.4 µM (inactive) | > 100 µM (inactive) | > 100 µM (inactive) | 69.3 µM (inactive) | > 100 µM (inactive) | 47.2 µM (inactive) | > 100 µM (inactive) | > 100 µM (inactive) | > 100 µM (inactive) | > 100 µM (inactive) | > 100 µM (inactive) | 53.7 µM (inactive) | > 100 µM (inactive) |  |
| Cc1nc(-c2nc(C)c(C(=O)NN(C)C)s2)sc1C(=O)NN(C)C |  | > 100 µM (inactive) | > 100 µM (inactive) | > 100 µM (inactive) | > 100 µM (inactive) | > 100 µM (inactive) | 43 µM (inactive) |  | > 100 µM (inactive) |  | > 100 µM (inactive) | > 100 µM (inactive) | > 100 µM (inactive) | > 100 µM (inactive) | 53 µM (inactive) | 34.6 µM (inactive) |
| N#Cc1ccccc1NC(=O)C(=O)C1NC(=S)NC1=O (centres undefined) | > 100 µM (inactive) | > 100 µM (inactive) | > 100 µM (inactive) | > 100 µM (inactive) | > 100 µM (inactive) | > 100 µM (inactive) | > 100 µM (inactive) | > 100 µM (inactive) | > 100 µM (inactive) | > 100 µM (inactive) | > 100 µM (inactive) | > 100 µM (inactive) | > 100 µM (inactive) | > 100 µM (inactive) | > 100 µM (inactive) |  |
| COc1cc(/C=C2\[C@H]3c4c(c(OC)c(C)c(OC)c4OC)C[C@@H](C(=O)N2Cc2ccccc2)N3C(=O)OCC(C)C)c(OC)c(C)c1OC | > 100 µM (inactive) | > 100 µM (inactive) | > 100 µM (inactive) | > 100 µM (inactive) | > 100 µM (inactive) | > 64.3 µM (inactive) | 7.46 µM (inactive) | 12.1 µM (inactive) |  | > 31.6 µM (inactive) | 16.6 µM (inactive) | 23.6 µM (inactive) | > 27.5 µM (inactive) | 26.2 µM (inactive) | > 100 µM (inactive) | 19.4 µM (inactive) |
| CC(=O)Nc1ccc(C(=O)NN2C(=O)C(Cl)C2c2ccc(O)cc2)cc1 (centres undefined) | 61.7 µM (inactive) | > 100 µM (inactive) |  | > 100 µM (inactive) | > 100 µM (inactive) | > 100 µM (inactive) | > 100 µM (inactive) | > 100 µM (inactive) | > 100 µM (inactive) | > 100 µM (inactive) | > 100 µM (inactive) | > 100 µM (inactive) | > 100 µM (inactive) | > 100 µM (inactive) | > 100 µM (inactive) | > 100 µM (inactive) |
| O=C(CC1(O)C(=O)Nc2c(Cl)cc(Cl)cc21)c1ccccc1 (centres undefined) | > 100 µM (inactive) | > 100 µM (inactive) |  | > 100 µM (inactive) | 82.4 µM (inactive) | > 100 µM (inactive) | 37 µM (inactive) | 50.5 µM (inactive) | > 100 µM (inactive) | 40.9 µM (inactive) | 57 µM (inactive) | > 100 µM (inactive) | > 100 µM (inactive) | 60.3 µM (inactive) | 39.2 µM (inactive) | 55.1 µM (inactive) |
| C=CCc1cc(OC)c2c(c1)C(OC)CC(c1ccc(OC)c(OC)c1)O2 (centres undefined) |  | 55.1 µM (inactive) | > 100 µM (inactive) | > 100 µM (inactive) | > 100 µM (inactive) | 71.9 µM (inactive) | 75 µM (inactive) | > 100 µM (inactive) | > 100 µM (inactive) | > 100 µM (inactive) | > 100 µM (inactive) | 94.8 µM (inactive) | > 100 µM (inactive) | > 100 µM (inactive) | > 100 µM (inactive) |  |
| COc1c(C)cc2c(C(C)C)c(O)c(O)c(C=O)c2c1O | 21.6 µM (inactive) | 16.2 µM (inactive) | 18.3 µM (inactive) | 22.4 µM (inactive) | 27 µM (inactive) | 29.6 µM (inactive) | 25.9 µM (inactive) | 20.7 µM (inactive) | 25.9 µM (inactive) | 40.6 µM (inactive) | 21.4 µM (inactive) |  | 28.9 µM (inactive) | 16 µM (inactive) | 17.2 µM (inactive) | 25.6 µM (inactive) |
| CC1(C)CC(=O)c2c(oc3cc(O)c(O)cc23)C1 | 29.4 µM (inactive) | 32.7 µM (inactive) | 23.9 µM (inactive) |  |  | 31.3 µM (inactive) | 16 µM (inactive) | > 10 µM (inactive) | 32 µM (inactive) | 19.1 µM (inactive) | 30.5 µM (inactive) | 25.8 µM (inactive) | 15.5 µM (inactive) | 17.7 µM (inactive) | 19.5 µM (inactive) | 11.5 µM (inactive) |
| CC(=O)NC(CCCCN)C(=O)NCc1ccccc1 (centres undefined) | > 100 µM (inactive) | > 100 µM (inactive) | > 100 µM (inactive) | > 100 µM (inactive) | > 100 µM (inactive) | > 100 µM (inactive) |  | > 100 µM (inactive) | > 100 µM (inactive) | > 100 µM (inactive) | > 100 µM (inactive) | > 100 µM (inactive) | > 100 µM (inactive) | > 100 µM (inactive) | > 100 µM (inactive) | > 100 µM (inactive) |
